Test results published in patent publication US20250296939A1, “BENZOTHIOPHENE COMPOUND” (Kyoto Pharmaceutical Industries, Ltd., priority 2022, published 2025).

Columns and labels:
[1] = system: NQO1 activity in Hepa1c1c7 cells; test: NAD(P)H: quinone oxidoreductase-1 (NQO1) enzyme induction assay (in vitro); assay type: cell-based, mouse; settings: Mus musculus, Hepa-1c1c7, NQO1 activity upon addition of 400 nM of test compound, about 48 hr, ratio from the base without the compound
Description: Experimental Example 2: NAD(P)H: Quinone Oxidoreductase-1 (NQO1) Enzyme Induction Assay (In Vitro)
The NQO1 assay was performed based on a previous report (Methods in Enzymology 2004; 382: 243-258). Hepa1c1c7 cells (mouse hepatocyte cell line, ATCC, cat. no. CRL-2026) were cultured in D-MEM medium containing 10% FBS and 1% penicillin/streptomycin (5% CO2, 37° C.), and seeded into 96-well plates (Corning REF. 353072) at 1×10^4 cells/well. A portion of the wells were prepared with medium only for background measurement without seeding cells. The next day, 400 nM of the test compound (0.004% of the final concentration in DMSO) dissolved in DMSO was added thereto, and the wells were incubated for about 48 hr. A well without adding the test compound was prepared for base activity assay in part.
Cell lysate (solution containing 0.8% digitonin, 2 mM EDTA), reaction solution (solution containing 25 mM Tris-HCl, 0.07% albumin, 0.01% Tween-20, 2 U/mL glucose-6-phosphate dehydrogenase, 5 μM flavin adenine dinucleotide, 1 μM glucose-6-phosphate, 30 μM nicotinamide adenine dinucleotide phosphate, 0.03% 3-(4,5-dimethyl-2-thiazolyl)-2,5-diphenyltetrazolium bromide (MTT), and 50 μM menadione), stop solution (solution containing 0.3 mM dicoumarol and 5 mM potassium dihydrogen phosphate, pH 7.4) were prepared. After the medium was removed, 50 μL of the cell lysate was added and incubated at 37° C. for 10 minutes, followed by shaking at room temperature for 10 minutes. 200 μL of reaction solution was added thereto, and allowed to stand for 5 minutes at room temperature. 50 μL of the stop solution was added thereto, and absorbance was measured at 610 nm on a SpectraMax PLUS384 (Molecular devices) or POWERSCAN HT (DS Pharma Biomedical). The test results were analyzed in Excel, and the NQO1 activity upon addition of 400 nM of test compound was calculated as a ratio from the base without the compound.
The results of each test compound in this test are shown in the following Table 2 (A: 5<NQO1 activity ratio, B: 3<NQO1 activity ratio 5, C: 1.5<NQO1 activity ratio 3).

[2] = molecular target: GST-fused human Keap1 (amino acid residues: 325-642) protein (Homo sapiens (Human), UniProt Q14145); test: FP assay (in vitro): inhibition of binding between Nrf2 and Keap1 by fluorescence polarization; settings: 20 nM GST-fused human Keap1, 10 nM FITC-labeled Nrf2 peptide, 2 hr at room temperature
Description: Experimental Example 1: FP Assay (In Vitro)
The inhibitory activity of test compounds on the binding between Nrf2 and Keap1 was determined by fluorescence polarization. A solution of 50 mM Tris-HCl pH.8.0 (NACALAI, REF: 06938-15), and 5 mM DTT (SIGMA-ALDRICH, REF: 646563-10X.5 mL) was used as a buffer solution. 8 μL of a buffer solution containing 40 nM GST-fused human Keap1 (amino acid residues: 325-642) protein (Protein tech, REF: Ag0779) was taken in a black 384-well plate (final concentration 20 nM), and 4 μL of the test compound solution prepared to each concentration in buffer solution was added thereto. A well containing a portion of the buffer solution without Keap1 was placed as a negative control. A well with no compound was used as a positive control. 40 nM of FITC-labeled Nrf2 peptide (FITC-X-LQLDEETGEFLPIQ (X=ε-Acp), Peptide Institute Inc.) was added thereto (10 nM final concentration). The wells were incubated at room temperature for 2 hr, and then fluorescence polarization was measured with a plate reader SPECTRAMAX Paradigm (Molecular devices) at excitation wavelength of 485 nm and fluorescence wavelength of 535 nm. The fluorescence polarization of the negative control was set to 100% inhibition and that of the positive control to 0% inhibition, and the inhibitory rate upon addition of the test compound was calculated using the following formula.

Chain of GST-fused human Keap1 (amino acid residues: 325-642) protein (Q14145 325-624 limits assumed): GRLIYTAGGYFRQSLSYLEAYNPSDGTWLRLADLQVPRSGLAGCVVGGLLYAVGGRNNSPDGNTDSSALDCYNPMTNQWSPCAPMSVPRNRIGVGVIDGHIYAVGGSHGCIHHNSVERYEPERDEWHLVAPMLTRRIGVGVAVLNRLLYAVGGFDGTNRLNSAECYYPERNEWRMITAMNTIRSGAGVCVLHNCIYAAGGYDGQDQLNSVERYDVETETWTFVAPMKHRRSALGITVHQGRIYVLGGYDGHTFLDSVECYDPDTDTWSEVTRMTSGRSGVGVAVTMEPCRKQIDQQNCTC

IC50 [2] | SMILES | fold induction at 0.4 µM [1]
10 to 30 nM | CC[C@@H]1CN(Cc2cc([C@H](CC(=O)O)c3cc(C(F)(F)F)c4c(nnn4C)c3C)cc3ccsc23)Cc2nc(O)ccc2O1 [Example 30, (3S)-3-[1,4-Dimethyl-7-(trifluoromethyl)-1H-benzotriazol-5-yl]-3-(7-{[(2R)-2-ethyl-7-hydroxy-2,3-dihydropyrido[2,3-f][1,4]oxazepin-4(5H)-yl]methyl}-1-benzothiophen-5-yl)propanoic acid] | > 5
10 to 30 nM | Cc1c([C@H](c2cc(CN3Cc4nc(O)ccc4OC4(CC4)C3)c3sccc3c2)C(C)(C)C(=O)O)cnc2c1nnn2C [Example 50, (3S)-3-(3,7-Dimethyl-3H-[1,2,3]triazolo[4,5-b]pyridin-6-yl)-3-{7-[(7′-hydroxy-3′H-spiro[cyclopropane-1,2′-pyrido[2,3-f][1,4]oxazepin]-4′(5′H)-yl)methyl]-1-benzothiophen-5-yl}-2,2-dimethylpropanoic acid] | > 5
10 to 30 nM | CC[C@@H]1CN(Cc2cc([C@@H](CC(=O)O)c3cc(C(F)(F)F)c4c(nnn4C)c3C)cc3ccsc23)Cc2nc(O)ccc2O1 [Example 29, (3R)-3-[1,4-Dimethyl-7-(trifluoromethyl)-1H-benzotriazol-5-yl]-3-(7-{[(2R)-2-ethyl-7-hydroxy-2,3-dihydropyrido[2,3-f][1,4]oxazepin-4(5H)-yl]methyl}-1-benzothiophen-5-yl)propanoic acid] | > 5
30 to 300 nM | Cc1c([C@H](CC(=O)O)c2cc(CN3Cc4nc(O)ccc4CC(C4CC4)C3)c3sccc3c2)ccc2c1nnn2C (single isomer, unassigned) [Example 88, (3R)-3-(7-{[(6S*)-6-Cyclopropyl-2-hydroxy-5,6,7,9-tetrahydro-8H-pyrido[2,3-c]azepin-8-yl]methyl}-1-benzothiophen-5-yl)-3-(1,4-dimethyl-1H-benzotriazol-5-yl)propanoic acid] | > 5
300 to 3000 nM | CC[C@@H]1CN(Cc2cc([C@H](c3cnc4c(nnn4C)c3C)C(C)(C)C(=O)O)cc3ccsc23)Cc2nc(O)ccc2O1 [Example 49, (3R)-3-(3,7-Dimethyl-3H-[1,2,3]triazolo[4,5-b]pyridin-6-yl)-3-(7-{[(2R)-2-ethyl-7-hydroxy-2,3-dihydropyrido[2,3-f][1,4]oxazepin-4(5H)-yl]methyl}-1-benzothiophen-5-yl)-2,2-dimethylpropanoic acid] | 3 to 5

More lines, now with the values behind:

SMILES | IC50 [2] | fold induction at 0.4 µM [1]
Cc1c([C@@H](CC(=O)O)c2cc(CN3Cc4c(ccnc4O)OC4(CC4)C3)c3sccc3c2)ccc2c1nnn2C [Example 82, (3S)-3-(1,4-Dimethyl-1H-benzotriazol-5-yl)-3-{7-[(6′-hydroxy-3′H-spiro[cyclopropane-1,2′-pyrido[3,4-f][1,4]oxazepin]-4′(5′H)-yl)methyl]-1-benzothiophen-5-yl}propanoic acid] | 10 to 30 nM | 3 to 5
CC[C@@H]1CN(Cc2cc([C@@H](CC(=O)O)c3cc(C)c4c(nnn4C)c3C)cc3ccsc23)Cc2nc(O)ccc2O1 [Example 18, (3R)-3-(7-{[(2R)-2-Ethyl-7-hydroxy-2,3-dihydropyrido[2,3-f][1,4]oxazepin-4(5H)-yl]methyl}-1-benzothiophen-5-yl)-3-(1,4,7-trimethyl-1H-benzotriazol-5-yl)propanoic acid] | 30 to 300 nM | > 5
Cc1c([C@@H](CC(=O)O)c2cc(CN3Cc4cnc(O)cc4OC4(CC4)C3)c3sccc3c2)ccc2c1nnn2C [Example 79, (3S)-3-(1,4-Dimethyl-1H-benzotriazol-5-yl)-3-{7-[(8′-hydroxy-3′H-spiro[cyclopropane-1,2′-pyrido[3,4-f][1,4]oxazepin]-4′ (5′H)-yl)methyl]-1-benzothiophen-5-yl}propanoic acid] | 10 to 30 nM | 3 to 5
CC[C@@H]1CN(Cc2cc([C@@H](CC(=O)O)c3cnc4c(nnn4C)c3C)cc3ccsc23)Cc2nc(N)ccc2O1 [Example 67, (3R)-3-(7-{[(2R)-7-Amino-2-ethyl-2,3-dihydropyrido[2,3-f][1,4]oxazepin-4(5H)-yl]methyl}-1-benzothiophen-5-yl)-3-(3,7-dimethyl-3H-[1,2,3]triazolo[4,5-b]pyridin-6-yl)propanoic acid] | 10 to 30 nM | > 5
Cc1c(C(CC(=O)O)c2cc(CN3Cc4nc(O)ccc4OC4(CC4)[C@H]3C)c3sccc3c2)ccc2c1nnn2C (single isomer, unassigned) [Example 58, (3R*)-3-(1,4-Dimethyl-1H-benzotriazol-5-yl)-3-(7-{[(3′R)-7′-hydroxy-3′-methyl-3′H-spiro[cyclopropane-1,2′-pyrido[2,3-f][1,4]oxazepin]-4′ (5′H)-yl]methyl}-1-benzothiophen-5-yl)propanoic acid] | 300 to 3000 nM | 1.5 to 3
CC[C@@H]1CN(Cc2cc([C@H](CC(=O)O)c3cnc4c(nnn4C)c3C)cc3ccsc23)Cc2nc(O)ccc2O1 [Example 24, (3S)-3-(3,7-Dimethyl-3H-[1,2,3]triazolo[4,5-b]pyridin-6-yl)-3-(7-{[(2R)-2-ethyl-7-hydroxy-2,3-dihydropyrido[2,3-f][1,4]oxazepin-4(5H)-yl]methyl}-1-benzothiophen-5-yl)propanoic acid] | 10 to 30 nM | 3 to 5
CC[C@@H]1CN(Cc2cc([C@@H](CC(=O)O)c3ccc4c(nnn4CC(F)(F)F)c3C)cc3ccsc23)Cc2nc(O)ccc2O1 (single isomer, unassigned) [Example 27] | 10 to 30 nM | > 5
Cc1c([C@H](CC(=O)O)c2cc(CN3Cc4nc(O)ccc4O[C@H](C(C)(F)F)C3)c3sccc3c2)ccc2c1nnn2C [Example 45, (3R)-3-(7-{[(2S)-2-(1,1-Difluoroethyl)-7-hydroxy-2,3-dihydropyrido[2,3-f][1,4]oxazepin-4(5H)-yl]methyl}-1-benzothiophen-5-yl)-3-(1,4-dimethyl-1H-benzotriazol-5-yl)propanoic acid] | 10 to 30 nM | > 5
Cc1c([C@H](CC(=O)O)c2cc(CN3Cc4nc(O)ccc4O[C@@H](C4CC4)C3)c3sccc3c2)ccc2c1nnn2C [Example 8, (3R)-3-(7-{[(2S)-2-Cyclopropyl-7-hydroxy-2,3-dihydropyrido[2,3-f][1,4]oxazepin-4(5H)-yl]methyl}-1-benzothiophen-5-yl)-3-(1,4-dimethyl-1H-benzotriazol-5-yl)propanoic acid] | 30 to 300 nM | 3 to 5
Cc1c([C@@H](CC(=O)O)c2cc(CN3Cc4nc(O)ccc4O[C@H](C4CC4)C3)c3sccc3c2)ccc2c1nnn2C [Example 6, (3S)-3-(7-{[(2R)-2-Cyclopropyl-7-hydroxy-2,3-dihydropyrido[2,3-f][1,4]oxazepin-4(5H)-yl]methyl}-1-benzothiophen-5-yl)-3-(1,4-dimethyl-1H-benzotriazol-5-yl)propanoic acid] | 10 to 30 nM | > 5
Cc1c(C(CC(=O)O)c2cc(CN3Cc4nc(N)ccc4OC4(CC4)C3)c3sccc3c2)cnc2c1nnn2C (centres unmarked) [Example 71, 3-{7-[(7′-Amino-3′H-spiro[cyclopropane-1,2′-pyrido[2,3-f][1,4]oxazepin]-4′ (5′H)-yl)methyl]-1-benzothiophen-5-yl}-3-(3,7-dimethyl-3H-[1,2,3]triazolo[4,5-b]pyridin-6-yl)propanoic acid] | 10 to 30 nM | > 5
